Holding throughout (assay type): biochemical
In one assay the target is human thrombin (Homo sapiens, UniProt P00734). The assay can be described thus: Inhibition of human thrombin (aIIa), splitting of chromogenic substrate S 2238. The settings on record: measured after 90 minutes, expressed as the molar concentration which inhibited the end absorbance by 50%. On the procedure:
(§1) The inhibition of human thrombin was investigated by continuously monitoring the splitting of the chromogenic substance S 2238 (N-D-Phe-L-pipecolyl-L-Arg-p-nitro-anilide 2 HCl) in the absence and in the presence of 3, 1, 0.3, 0.1 and 0.03 mM of the compound investigated. These measurements were performed with the help of a kinetic microtiter plate reader. From these measurements the end absorbances were calculated after 90 minutes. Based on these total scores, an IC50 of the various compounds investigated is expressed as the molar concentration which inhibited the end absorbance by 50%. IC50 values for aXa-activity were investigated in the same way by using the chromogenic substrate s2222 (N-benzoyl-Ile-Glu-(OCH3)Gly-Arg-pNa).

In another assay the target is aXa (Homo sapiens, UniProt P00742). The assay can be described thus: aXa-activity, chromogenic substrate s2222. Conditions: measured after 90 minutes, expressed as molar concentration. On the procedure: as §1
The target of another assay is T1, Factor IIa (Homo sapiens, UniProt P00734).
T1 construct: Ki [M]-Factor IIa
The experiment in a line: Ki against Factor IIa. The settings on record: called minimum inhibitory concentrations.

SMILES strings stand for the structures. Residues, ends and D or L forms follow the SMILES beside them.

As a reminder, the IC50 is the concentration that inhibits the measured activity by half. Read a low IC50 as inhibition by little substance. As a reminder, the Ki is the dissociation constant of the complex between target and ligand, obtained from inhibition or displacement. A low value points to tighter binding.

aXa, sequence (P00742 41-179 limits assumed): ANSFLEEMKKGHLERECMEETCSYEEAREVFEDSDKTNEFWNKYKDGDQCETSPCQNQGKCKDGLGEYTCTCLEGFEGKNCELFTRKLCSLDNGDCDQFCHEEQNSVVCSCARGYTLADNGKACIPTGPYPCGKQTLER
aXa, sequence (P00742 235-488 limits assumed): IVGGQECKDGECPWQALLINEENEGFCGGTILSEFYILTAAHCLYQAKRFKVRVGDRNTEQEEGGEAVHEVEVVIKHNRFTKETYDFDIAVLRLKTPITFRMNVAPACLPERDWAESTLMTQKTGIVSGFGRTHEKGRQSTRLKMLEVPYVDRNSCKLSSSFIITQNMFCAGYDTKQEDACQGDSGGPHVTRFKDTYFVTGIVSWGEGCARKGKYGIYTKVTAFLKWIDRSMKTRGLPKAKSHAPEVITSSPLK

Consider `C[C@H](NC(=O)[C@H](CCCNC(=N)N)NC(=O)[C@@H]1CCCN1C(=O)[C@H](N)Cc1ccccc1)C(=O)N[C@@H](Cc1ccccc1)C(=O)N[C@@H](CCCCN)C(=O)O` [H-D-Phe-Pro-Arg-Ala-Phe-Lys-OH] (HELM PEPTIDE1{[dF].P.R.A.F.K}$$$$V2.0), for which the IC50 stood at 110 µM against human thrombin and 3100 µM against aXa.
For the molecule `N=C(N)NCCC[C@H](NC(=O)[C@@H]1CCCN1C(=O)[C@H](N)Cc1ccccc1)C(=O)NCC(=O)O` [H-D-Phe-Pro-Arg-Gly-OH, reference compound] (HELM PEPTIDE1{[dF].P.R.G}$$$$V2.0), the half-inhibitory concentration (IC50) stood at 4000 µM on human thrombin and 4800 µM against aXa. Also, the inhibitory constant (Ki) at Factor IIa was 70 µM.
In the same order, the values of `N=C(N)NCCC[C@H](NC(=O)[C@@H]1CCCN1C(=O)[C@H](N)Cc1ccccc1)C(=O)NCC(=O)N[C@@H](Cc1ccccc1)C(=O)N[C@@H](CCCCN)C(=O)O` [H-D-Phe-Pro-Arg-Gly-Phe-Lys-OH] (HELM PEPTIDE1{[dF].P.R.G.F.K}$$$$V2.0) are 250 µM, 1600 µM and 3.4 µM.
As to `N=C(N)NCCC[C@H](NC(=O)[C@@H]1CCCN1C(=O)[C@H](N)Cc1ccccc1)C(=O)NCC(=O)N[C@@H](Cc1ccccc1)C(=O)O` [H-D-Phe-Pro-Arg-Gly-Phe-OH] (HELM PEPTIDE1{[dF].P.R.G.F}$$$$V2.0), the IC50 against human thrombin was determined as 410 µM; against aXa, 1300 µM. Besides, the inhibition constant Ki on Factor IIa came to 7.6 µM.
At Factor IIa, `N=C(N)NCCC[C@H](NC(=O)[C@@H]1CCCN1C(=O)[C@H](N)Cc1ccccc1)C(=O)CCC(=O)O` [H-D-Phe-Pro-Arg-psi[COCH2 ]-Gly-OH] returned an inhibition constant (Ki) of 26 µM.
The same measure, in the same setting: the same measure for `NCCCC[C@H](NC(=O)[C@H](Cc1ccccc1)NC(=O)CCC(=O)[C@H](CCCN=C(N)N)NC(=O)[C@@H]1CCCN1C(=O)[C@H](N)Cc1ccccc1)C(=O)O` [H-D-Phe-Pro-Arg-psi[COCH2 ]-Gly-Phe-Lys-OH] (HELM PEPTIDE1{[dF].P.[N=C(N)NCCC[C@H](N[*:1])C(=O)CCC(=O)[*:2]].F.K}$$$$V2.0): 0.028 µM.
On to `N=C(N)NCCC[C@H](NC(=O)[C@@H]1CCCN1C(=O)[C@H](N)Cc1ccccc1)C(=O)CCC(=O)N[C@@H](Cc1ccccc1)C(=O)O` [H-D-Phe-Pro-Arg-psi[COCH2 ]-Gly-Phe-OH], for which the IC50 against human thrombin worked out at 37 µM; against aXa, 2100 µM. The molecule also displayed a Ki at Factor IIa of 0.48 µM.

(Values after patent publication US5719128A, “Factor IIa inhibitors” (Akzo Nobel N.V., priority 1991, dated 1998).)
